{"source": "patent US8426649B2", "about": "“Cyclopropenones and the photochemical generation of cyclic alkynes therefrom” (University of Georgia Research Foundation, Inc., priority 2009, dated 2013)", "key": {"[1]": {"assay": "Rate measurements of cycloaddition of acetylenes with azides by UV spectroscopy in methanol", "type": "physicochemical", "conditions": "25±0.1° C.", "method": "The rate measurements of cycloaddition of acetylenes 6c and 4a were conducted by UV spectroscopy at 25±0.1° C. A calculated amount of 0.25 M solutions of an azide required to achieve desired azide concentration (6×10^−4-1.5×10^−2 M) was added to a thermally equilibrated ca. 6×10^−5 M solution of acetylene in MeOH. Reactions were monitored by following the decay of the characteristic absorbance of acetylenes ca. 317 nm (FIG. 6). Consumption of starting material followed a first order equation well and the pseudo-first order rate constants were obtained by the by least-squares fitting of the data to a single exponential equation. The dependence of the observed rates on the concentration of azides was linear.\nThe rate measurements of the cycloaddition reaction of acetylene 6c with azides was conducted by UV spectroscopy following the decay of the 317 nm band of 6c (as shown in FIG. 6) in the photolysate at various concentrations of azides from about 0.5 mM to about 20 mM). […]\nRate measurements were performed using Carry-300 Bio UV-Vis spectrometer equipped with a thermostatable cell holder. […] A calculated amount of 0.25 M solutions of an azide required to achieve desired azide concentration (6×10^−4−1.5×10^−2M) was added at once. Reactions were monitored by following the decay of the characteristic absorbance of acetylene 6c at approximately 317 nm (FIG. 6). […]"}, "[2]": {"assay": "Stability of cyclopropenones (shelf life, elevated temperature, solution)", "type": "physicochemical", "conditions": "3 days at 40° C. in aqueous and methanol solutions", "text": "Diphenyl cyclopropenones, such as 5a-c, 18a-c, and 19, had long shelf lives, and could withstand elevated temperatures. […] (Poloukhtine & Popik (2003) J. Org. Chem. 68: 7833-7840). The cyclopropenones are also stable in solution in the absence of light."}}, "data": [{"compound": "3,9-Dibutoxy-5,6-didehydro-11,12-dihydrodibenzo[a,e][8]annulen-2-yl [6c]", "values": [{"measurement": "Bimolecular rate constant, Rate", "setting": "[1]; 1-phenyl-2-azidopropane", "value": 0.0343, "unit": "M⁻¹ s⁻¹"}, {"measurement": "Bimolecular rate constant, Rate", "setting": "[1]; n-butyl azide", "value": 0.0586, "unit": "M⁻¹ s⁻¹"}]}, {"compound": "CCCCOc1ccc2c(c1)CCc1cc(OCCCC)ccc1-c1c-2c1=O", "note": "[5c, 4,9-dibutoxy-6,7-dihydro-1H-dibenzo[a,e]cyclopropa[c][8]annulen-1-one]", "values": [{"measurement": "Decomposition in solution in the absence of light", "setting": "[2]", "value": "no decomposition"}]}]}
